Results reported in ChEMBL document CHEMBL3885861, “Open TG-GATES”.

Organism: Rattus norvegicus
Assay: Open TG-GATES - Regimen: Daily Repeat
Type: toxicity, organism-based, Sprague-Dawley
Parameters: regimen Daily Repeat, gender Male, age 6 weeks
Details: in vivo, po, route gavage; for TC / TG / TP / gamma-GTP / A/G / ALP / ALT / AST / BUN / CRE / Ca / Cl / GLC / IP / K / LDH / Na / PL / RALB: tissue Plasma; for APTT / Bas / Eos / Fbg / Hb / Ht / Lym / MCH / MCHC / MCV / Mono / Neu / PT / Plat / RBC / Ret / WBC: tissue Blood; for KIDNEY_L / KIDNEY_R / KIDNEY_TOTAL: tissue Kidney; for LIVER: tissue Liver
[1] = 100 mg/kg, […], dose level Low, time 28 day
[2] = 300 mg/kg, 72 h, dose level Middle, time 3 day
[3] = 300 mg/kg, […], dose level Middle, time 7 day
[4] = 300 mg/kg, […], dose level Middle, time 14 day
[5] = 300 mg/kg, […], dose level Middle, time 28 day

O=C(O)c1ccccc1Nc1ccccc1 [FENAMIC ACID]
TC [1]: 76.6 mg/dL
TG [1]: 129.6 mg/dL
TP [1]: 6.2 g/dL
gamma-GTP [1]: 1 IU/L
TERMINAL_BW [2]: 241.8 g
APTT [2]: 15.8 s
Bas [2]: 0.4%
Eos [2]: 1%
Fbg [2]: 293.6 mg/dL
Hb [2]: 13.4 g/dL
Ht [2]: 40.1%
Lym [2]: 74.2%
MCH [2]: 20.9 pg
MCHC [2]: 33.4%
MCV [2]: 62.8 fL
Mono [2]: 2.8%
Neu [2]: 21.8%
PT [2]: 14 s
Plat [2]: 137.1 x10_4/uL
RBC [2]: 639.6 x10_4/ul
Ret [2]: 6.8%
WBC [2]: 91.3 x10_2/uL
KIDNEY_L [2]: 1 g
KIDNEY_R [2]: 1 g
KIDNEY_TOTAL [2]: 1.9 g
LIVER [2]: 12 g
A/G [2]: 0.9
ALP [2]: 1538.8 IU/L
ALT [2]: 37.4 IU/L
AST [2]: 64.8 IU/L
BUN [2]: 14.2 mg/dL
CRE [2]: 0.2 mg/dL
Ca [2]: 11.6 mg/dL
Cl [2]: 105.8 meq/L
GLC [2]: 183 mg/dL
IP [2]: 6.4 mg/dL
K [2]: 4.3 meq/L
LDH [2]: 119.8 IU/L
Na [2]: 142.8 meq/L
PL [2]: 156 mg/dL
RALB [2]: 2.7 g/dL
TC [2]: 82.4 mg/dL
TG [2]: 99.4 mg/dL
TP [2]: 5.7 g/dL
gamma-GTP [2]: 1.6 IU/L
TERMINAL_BW [3]: 275.7 g
TERMINAL_BW [4]: 344.9 g
TERMINAL_BW [5]: 435 g
APTT [3]: 16.6 s
Bas [3]: 0.6%
Eos [3]: 1.2%
Fbg [3]: 313 mg/dL
Hb [3]: 13.6 g/dL
Ht [3]: 40.4%
Lym [3]: 80.6%
MCH [3]: 20.8 pg
MCHC [3]: 33.7%
MCV [3]: 61.5 fL
Mono [3]: 2.4%
Neu [3]: 15.2%
PT [3]: 13.9 s
Plat [3]: 137.6 x10_4/uL
RBC [3]: 656.8 x10_4/ul
Ret [3]: 6.2%
WBC [3]: 89.7 x10_2/uL
APTT [4]: 15.8 s
Bas [4]: 0.8%
Eos [4]: 0.8%
Fbg [4]: 296 mg/dL
Hb [4]: 14.4 g/dL
Ht [4]: 42.2%
Lym [4]: 79.8%
MCH [4]: 20.1 pg
MCHC [4]: 34.2%
MCV [4]: 58.6 fL
Mono [4]: 2.2%
Neu [4]: 16.4%
PT [4]: 13.8 s
Plat [4]: 131.5 x10_4/uL
RBC [4]: 719.6 x10_4/ul
Ret [4]: 4.7%
WBC [4]: 104.7 x10_2/uL
APTT [5]: 17.6 s
Bas [5]: 0.4%
Eos [5]: 1.4%
Fbg [5]: 314.2 mg/dL
Hb [5]: 14.8 g/dL
Ht [5]: 42.7%
Lym [5]: 79.8%
MCH [5]: 18.8 pg
MCHC [5]: 34.7%
MCV [5]: 54.1 fL
Mono [5]: 2.6%
Neu [5]: 15.8%
PT [5]: 14.1 s
Plat [5]: 119.3 x10_4/uL
RBC [5]: 789.8 x10_4/ul
Ret [5]: 2.7%
WBC [5]: 92.3 x10_2/uL
KIDNEY_L [3]: 1.3 g
KIDNEY_R [3]: 1.2 g
KIDNEY_TOTAL [3]: 2.5 g
KIDNEY_L [4]: 1.4 g
KIDNEY_R [4]: 1.4 g
KIDNEY_TOTAL [4]: 2.7 g
KIDNEY_L [5]: 1.5 g
KIDNEY_R [5]: 1.5 g
KIDNEY_TOTAL [5]: 3 g
LIVER [3]: 13.4 g
LIVER [4]: 16.2 g
LIVER [5]: 19 g
A/G [3]: 0.9
ALP [3]: 1312 IU/L
ALT [3]: 36.6 IU/L
AST [3]: 63.4 IU/L
BUN [3]: 26.8 mg/dL
CRE [3]: 0.3 mg/dL
Ca [3]: 11.8 mg/dL
Cl [3]: 103.8 meq/L
GLC [3]: 185 mg/dL
IP [3]: 7 mg/dL
K [3]: 4.6 meq/L
LDH [3]: 108 IU/L
Na [3]: 143.6 meq/L
PL [3]: 150.4 mg/dL
RALB [3]: 2.8 g/dL
TC [3]: 80.8 mg/dL
TG [3]: 91.6 mg/dL
TP [3]: 6 g/dL
gamma-GTP [3]: 1.6 IU/L
A/G [4]: 0.8
ALP [4]: 1463.6 IU/L
ALT [4]: 36.8 IU/L
AST [4]: 58.4 IU/L
BUN [4]: 15.8 mg/dL
CRE [4]: 0.3 mg/dL
Ca [4]: 11.3 mg/dL
Cl [4]: 104 meq/L
GLC [4]: 178 mg/dL
IP [4]: 6.5 mg/dL
K [4]: 4 meq/L
LDH [4]: 102.2 IU/L
Na [4]: 144.2 meq/L
PL [4]: 160.8 mg/dL
RALB [4]: 2.8 g/dL
TC [4]: 80.8 mg/dL
TG [4]: 117.2 mg/dL
TP [4]: 6.2 g/dL
gamma-GTP [4]: 1.2 IU/L
A/G [5]: 0.8
ALP [5]: 942.2 IU/L
ALT [5]: 31 IU/L
AST [5]: 53.2 IU/L
BUN [5]: 15.6 mg/dL
CRE [5]: 0.3 mg/dL
Ca [5]: 11.3 mg/dL
Cl [5]: 103.8 meq/L
GLC [5]: 186.6 mg/dL
IP [5]: 6.7 mg/dL
K [5]: 4 meq/L
LDH [5]: 107.6 IU/L
Na [5]: 144.6 meq/L
PL [5]: 161.8 mg/dL
RALB [5]: 2.9 g/dL
TC [5]: 82.2 mg/dL
TG [5]: 100.8 mg/dL
